Measurements published in PubChem BioAssay (NCI).
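How tested: cells in 96-well plates exposed to compound for 48 hours at five concentrations. TGI: concentration producing complete growth inhibition.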

Legend:
Experiment in all cases: growth of human tumour cells (NCI), 48 h
786-0 renal = system: 786-0 renal
A498 renal = system: A498 renal
A549 NSCLC = system: A549 NSCLC
ACHN renal = system: ACHN renal
BT-549 breast = system: BT-549 breast
CAKI-1 renal = system: CAKI-1 renal
COLO 205 colon = system: COLO 205 colon
DLD-1 colon = system: DLD-1 colon
DMS 114 small cell lung = system: DMS 114 small cell lung
DMS 273 small cell lung = system: DMS 273 small cell lung
DU-145 prostate = system: DU-145 prostate
EKVX NSCLC = system: EKVX NSCLC
HCC-2998 colon = system: HCC-2998 colon
HCT-116 colon = system: HCT-116 colon
HCT-15 colon = system: HCT-15 colon
HL-60(TB) leukemia = system: HL-60(TB) leukemia
HOP-18 NSCLC = system: HOP-18 NSCLC
HOP-62 NSCLC = system: HOP-62 NSCLC
HOP-92 NSCLC = system: HOP-92 NSCLC
HS 578T breast = system: HS 578T breast
HT29 colon = system: HT29 colon
IGROV1 ovarian = system: IGROV1 ovarian
K-562 leukemia = system: K-562 leukemia
KM12 colon = system: KM12 colon
KM20L2 colon = system: KM20L2 colon
LOX IMVI melanoma = system: LOX IMVI melanoma
LXFL 529 NSCLC = system: LXFL 529 NSCLC
M14 melanoma = system: M14 melanoma
M19-MEL melanoma = system: M19-MEL melanoma
MALME-3M melanoma = system: MALME-3M melanoma
MCF7 breast = system: MCF7 breast
MDA-MB-231 breast = system: MDA-MB-231 breast
MDA-MB-435 = system: MDA-MB-435
MDA-N = system: MDA-N
MOLT-4 leukemia = system: MOLT-4 leukemia
NCI-H226 lung = system: NCI-H226 lung
NCI-H23 lung = system: NCI-H23 lung
NCI-H460 lung = system: NCI-H460 lung
NCI-H522 lung = system: NCI-H522 lung
OVCAR-3 ovarian = system: OVCAR-3 ovarian
OVCAR-4 ovarian = system: OVCAR-4 ovarian
OVCAR-5 ovarian = system: OVCAR-5 ovarian
OVCAR-8 ovarian = system: OVCAR-8 ovarian
PC-3 prostate = system: PC-3 prostate
RPMI-8226 leukemia = system: RPMI-8226 leukemia
RXF 393 renal = system: RXF 393 renal
RXF-631 renal = system: RXF-631 renal
SF-268 CNS = system: SF-268 CNS
SF-295 CNS = system: SF-295 CNS
SF-539 CNS = system: SF-539 CNS
SK-MEL-2 melanoma = system: SK-MEL-2 melanoma
SK-MEL-28 melanoma = system: SK-MEL-28 melanoma
SK-MEL-5 melanoma = system: SK-MEL-5 melanoma
SK-OV-3 ovarian = system: SK-OV-3 ovarian
SN12C renal = system: SN12C renal
SNB-19 CNS = system: SNB-19 CNS
SNB-75 CNS = system: SNB-75 CNS
SNB-78 CNS = system: SNB-78 CNS
SR leukemia = system: SR leukemia
SW-620 colon = system: SW-620 colon
T-47D breast = system: T-47D breast
TK-10 renal = system: TK-10 renal
U251 CNS = system: U251 CNS
UACC-257 melanoma = system: UACC-257 melanoma
UACC-62 melanoma = system: UACC-62 melanoma
UO-31 renal = system: UO-31 renal
CCRF-CEM leukemia = system: CCRF-CEM leukemia
XF 498 CNS = system: XF 498 CNS

Work on `O=C1C=CC(=O)c2ccc(=O)ccc21` yielded a TGI (786-0 renal) of 32.8 µM, a TGI (A498 renal) of 41.6 µM and a TGI (A549 NSCLC) of 64.2 µM. It also gave a TGI (ACHN renal) of 23.5 µM, a TGI (BT-549 breast) of 31.9 µM and a TGI (CAKI-1 renal) of 21 µM. The TGI (COLO 205 colon) was 18.9 µM, the TGI (DLD-1 colon) was 15.6 µM and the TGI (DMS 114 small cell lung) was 33.9 µM. For the same compound, the TGI (DMS 273 small cell lung) was 58.1 µM, the TGI (DU-145 prostate) was 59.9 µM and the TGI (EKVX NSCLC) was 50.7 µM. The TGI (HCC-2998 colon) was 31.3 µM, the TGI (HCT-116 colon) was 31.6 µM and the TGI (HCT-15 colon) was 35.8 µM. For the same compound, the TGI (HL-60(TB) leukemia) was 15.8 µM, the TGI (HOP-18 NSCLC) was 39.1 µM and the TGI (HOP-62 NSCLC) was 51.5 µM. It also gave a TGI (HOP-92 NSCLC) of 3.72 µM, a TGI (HS 578T breast) greater than 100 µM and a TGI (HT29 colon) of 50.5 µM. The TGI (IGROV1 ovarian) was 33.6 µM, the TGI (K-562 leukemia) was 14.6 µM and the TGI (KM12 colon) was 37.4 µM. It also gave a TGI (KM20L2 colon) of 46.2 µM, a TGI (LOX IMVI melanoma) greater than 54.1 µM and a TGI (LXFL 529 NSCLC) of 11.1 µM. It also gave a TGI (M14 melanoma) of 31.1 µM, a TGI (M19-MEL melanoma) of 25.5 µM and a TGI (MALME-3M melanoma) of 39.6 µM. It also gave a TGI (MCF7 breast) greater than 100 µM, a TGI (MDA-MB-231 breast) of 45.5 µM and a TGI (MDA-MB-435) of 46 µM. For the same compound, the TGI (MDA-N) was 28.8 µM, the TGI (MOLT-4 leukemia) was 5.69 µM and the TGI (NCI-H226 lung) was 58.9 µM. For the same compound, the TGI (NCI-H23 lung) was 45.5 µM, the TGI (NCI-H460 lung) was 43.2 µM and the TGI (NCI-H522 lung) was 5.82 µM. The TGI (OVCAR-3 ovarian) was 26.7 µM, the TGI (OVCAR-4 ovarian) was 27.8 µM and the TGI (OVCAR-5 ovarian) was 35 µM. It also gave a TGI (OVCAR-8 ovarian) of 64.5 µM, a TGI (PC-3 prostate) of 33 µM and a TGI (RPMI-8226 leukemia) greater than 29.7 µM. The TGI (RXF 393 renal) was 16.3 µM, the TGI (RXF-631 renal) was 42.3 µM and the TGI (SF-268 CNS) was 32.9 µM. For the same compound, the TGI (SF-295 CNS) was 37.1 µM, the TGI (SF-539 CNS) was 43.5 µM and the TGI (SK-MEL-2 melanoma) was 34.8 µM. For the same compound, the TGI (SK-MEL-28 melanoma) was 42.6 µM, the TGI (SK-MEL-5 melanoma) was 38.3 µM and the TGI (SK-OV-3 ovarian) was 48.8 µM. It also gave a TGI (SN12C renal) of 32.2 µM, a TGI (SNB-19 CNS) of 27.1 µM and a TGI (SNB-75 CNS) of 39 µM. It also gave a TGI (SNB-78 CNS) of 64.5 µM, a TGI (SR leukemia) of 6.3 µM and a TGI (SW-620 colon) of 14.4 µM. For the same compound, the TGI (T-47D breast) was 5.55 µM, the TGI (TK-10 renal) was 33.9 µM and the TGI (U251 CNS) was 30.1 µM. The TGI (UACC-257 melanoma) was 30.4 µM, the TGI (UACC-62 melanoma) was 29.9 µM and the TGI (UO-31 renal) was 22.1 µM.

In the case of `CCC12CCCN(Cc3ccccc3)C1c1c(n(C)c3ccccc13)[C@H](C(=O)OC)C2` (stereo partly drawn), the TGI (786-0 renal) is reported as greater than 239 µM, the TGI (A549 NSCLC) is reported as greater than 239 µM and the TGI (ACHN renal) is reported as greater than 239 µM. For the same compound, the TGI (CAKI-1 renal) was greater than 239 µM, the TGI (CCRF-CEM leukemia) was greater than 239 µM and the TGI (COLO 205 colon) was greater than 239 µM. For the same compound, the TGI (DLD-1 colon) was greater than 239 µM, the TGI (DMS 114 small cell lung) was greater than 239 µM and the TGI (DMS 273 small cell lung) was greater than 239 µM. It also gave a TGI (EKVX NSCLC) greater than 239 µM, a TGI (HCC-2998 colon) greater than 239 µM and a TGI (HCT-116 colon) greater than 239 µM. For the same compound, the TGI (HCT-15 colon) was greater than 239 µM, the TGI (HL-60(TB) leukemia) was greater than 239 µM and the TGI (HOP-62 NSCLC) was greater than 239 µM. It also gave a TGI (HOP-92 NSCLC) of 238 µM, a TGI (HT29 colon) of 142 µM and a TGI (IGROV1 ovarian) greater than 239 µM. For the same compound, the TGI (K-562 leukemia) was greater than 239 µM, the TGI (KM12 colon) was greater than 239 µM and the TGI (KM20L2 colon) was greater than 239 µM. For the same compound, the TGI (LOX IMVI melanoma) was greater than 239 µM, the TGI (LXFL 529 NSCLC) was greater than 239 µM and the TGI (M19-MEL melanoma) was greater than 239 µM. The TGI (MALME-3M melanoma) was greater than 239 µM, the TGI (MOLT-4 leukemia) was greater than 239 µM and the TGI (NCI-H226 lung) was greater than 239 µM. The TGI (NCI-H23 lung) was greater than 239 µM, the TGI (NCI-H460 lung) was greater than 239 µM and the TGI (NCI-H522 lung) was greater than 239 µM. The TGI (OVCAR-3 ovarian) was greater than 239 µM, the TGI (OVCAR-5 ovarian) was greater than 239 µM and the TGI (OVCAR-8 ovarian) was greater than 239 µM. It also gave a TGI (RPMI-8226 leukemia) greater than 239 µM, a TGI (RXF 393 renal) greater than 239 µM and a TGI (RXF-631 renal) greater than 239 µM. For the same compound, the TGI (SF-268 CNS) was greater than 239 µM, the TGI (SF-295 CNS) was greater than 239 µM and the TGI (SF-539 CNS) was greater than 239 µM. The TGI (SK-MEL-2 melanoma) was greater than 239 µM, the TGI (SK-MEL-28 melanoma) was greater than 239 µM and the TGI (SK-MEL-5 melanoma) was greater than 239 µM. For the same compound, the TGI (SK-OV-3 ovarian) was greater than 239 µM, the TGI (SN12C renal) was greater than 239 µM and the TGI (SNB-19 CNS) was greater than 239 µM. For the same compound, the TGI (SR leukemia) was greater than 239 µM, the TGI (SW-620 colon) was greater than 239 µM and the TGI (TK-10 renal) was greater than 239 µM. For the same compound, the TGI (U251 CNS) was greater than 239 µM, the TGI (UACC-257 melanoma) was greater than 239 µM and the TGI (UACC-62 melanoma) was greater than 239 µM. For the same compound, the TGI (XF 498 CNS) was greater than 239 µM.
